One block for each compound: values may come before it. *1 amine or outer side, *2 acyl side, *3 side chain or, on linkers, in order; H or OH if unused. Where a SMILES comes first, the peptide text is derived from it. Bridges are numbered along the chain shown (N, C = ends). TBMB = c1c(C[*:1])cc(C[*:3])cc1C[*:2]
Key:
Plasma kallikrein [1] = target: T1, Plasma kallikrein (Homo sapiens, UniProt P03952); assay: Inhibition of human plasma kallikrein using H-D-Pro-Phe-Arg-p-nitroaniline as substrate assessed as inhibition constant
Plasma kallikrein [2] = target: T1, Plasma kallikrein; assay: Inhibition of plasma kallikrein (unknown origin)
Plasminogen [3] = target: T2, Plasminogen (Homo sapiens, UniProt P00747); assay: Inhibition of plasmin (unknown origin)
[4] = target: Urokinase-type plasminogen activator (Homo sapiens, UniProt P00749); assay: Inhibition of Urokinase (unknown origin)
Plasma kallikrein [5] = target: T1, Plasma kallikrein; assay: Inhibition of human plasma kallikrein using H-DPro-Phe-Arg-AFC as substrate
Plasma kallikrein [6] = target: T1, Plasma kallikrein; assay: Inhibition of human plasma kallikrein usingPro-Phe-Arg-AMC as substrate incubated for 5 mins; format: single protein
Trypsin = Trypsin (Homo sapiens, UniProt P07477+P07478+P35030); assay: Inhibition of trypsin (unknown origin); format: protein assay
Kallikrein-1 [7] = target: T3, Kallikrein-1 (Homo sapiens, UniProt P06870); assay: Inhibition of KLK1 (unknown origin)
Prothrombin [8] = target: T4, Prothrombin (Homo sapiens, UniProt P00734); assay: Inhibition of thrombin (unknown origin)
Kallikrein-1 [9] = target: T3, Kallikrein-1; assay: Inhibition of human KLK1 using H-DVal-Leu-Arg-AFC as substrate
Prothrombin [10] = target: T4, Prothrombin; assay: Inhibition of human thrombin using Z-GGR-AMC as substrate assessed as inhibition constant by fluorescence plate reader analysis
Plasminogen [11] = target: T2, Plasminogen; assay: Inhibition of human plasmin using H-d-VLK-AM as substrate assessed as inhibition constant by fluorescence plate reader analysis
Plasma kallikrein [12] = target: Plasma kallikrein (Rattus norvegicus, UniProt P14272); assay: Inhibition of rat recombinant plasma kallikrein using Z-FR-AMC as substrate assessed as inhibition constant by fluorescence plate reader analysis
Coagulation factor XI = Coagulation factor XI (Homo sapiens, UniProt P03951); assay: Inhibition of human fXIa using Boc-FSR-AMC as substrate assessed as inhibition constant by fluorescence plate reader analysis
Coagulation factor XII = target: T5, Coagulation factor XII (Homo sapiens, UniProt P00748); assay: Inhibition of human fXIIa using Z-GGR-AMC as substrate assessed as inhibition constant by fluorescence plate reader analysis
T5 sequence (P00748 whole entry): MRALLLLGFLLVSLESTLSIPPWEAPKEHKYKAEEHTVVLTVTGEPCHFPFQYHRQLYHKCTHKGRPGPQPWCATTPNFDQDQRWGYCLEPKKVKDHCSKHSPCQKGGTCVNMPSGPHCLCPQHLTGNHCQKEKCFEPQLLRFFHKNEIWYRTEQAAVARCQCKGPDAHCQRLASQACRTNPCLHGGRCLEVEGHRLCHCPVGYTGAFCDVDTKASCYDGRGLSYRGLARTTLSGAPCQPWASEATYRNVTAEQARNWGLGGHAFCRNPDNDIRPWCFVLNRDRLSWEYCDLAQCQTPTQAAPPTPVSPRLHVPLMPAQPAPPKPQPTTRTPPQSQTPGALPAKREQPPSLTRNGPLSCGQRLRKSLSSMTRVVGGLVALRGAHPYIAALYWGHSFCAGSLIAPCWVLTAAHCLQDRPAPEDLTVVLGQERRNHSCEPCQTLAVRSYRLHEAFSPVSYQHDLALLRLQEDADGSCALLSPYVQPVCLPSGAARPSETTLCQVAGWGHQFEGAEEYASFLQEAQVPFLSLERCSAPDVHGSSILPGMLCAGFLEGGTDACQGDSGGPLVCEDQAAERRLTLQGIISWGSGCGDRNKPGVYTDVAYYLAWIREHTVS

Plasma kallikrein [13] = target: T1, Plasma kallikrein; assay: Inhibition of human plasma kallikrein incubated for 1 hrs

T2 sequence (P00747 97-580 limits assumed): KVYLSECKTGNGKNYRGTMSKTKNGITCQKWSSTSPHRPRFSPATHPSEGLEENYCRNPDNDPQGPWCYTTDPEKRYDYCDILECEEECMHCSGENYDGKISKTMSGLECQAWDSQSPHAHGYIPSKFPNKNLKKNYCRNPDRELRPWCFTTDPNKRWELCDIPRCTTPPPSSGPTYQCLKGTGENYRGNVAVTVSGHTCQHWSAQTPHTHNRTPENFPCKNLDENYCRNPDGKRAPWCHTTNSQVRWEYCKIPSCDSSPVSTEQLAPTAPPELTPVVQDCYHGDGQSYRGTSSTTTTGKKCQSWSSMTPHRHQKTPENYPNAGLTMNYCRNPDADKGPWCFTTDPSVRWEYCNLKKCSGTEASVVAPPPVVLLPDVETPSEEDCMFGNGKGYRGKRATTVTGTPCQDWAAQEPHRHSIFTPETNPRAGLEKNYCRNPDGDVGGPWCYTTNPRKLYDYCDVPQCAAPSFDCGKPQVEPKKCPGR
T2 sequence (P00747 581-810 limits assumed): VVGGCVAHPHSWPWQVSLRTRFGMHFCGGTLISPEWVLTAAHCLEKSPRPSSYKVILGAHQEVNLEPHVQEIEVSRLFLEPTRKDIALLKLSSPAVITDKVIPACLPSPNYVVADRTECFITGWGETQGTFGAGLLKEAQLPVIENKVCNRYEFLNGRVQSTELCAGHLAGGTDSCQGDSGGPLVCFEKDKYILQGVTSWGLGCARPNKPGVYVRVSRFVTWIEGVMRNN
T1 sequence (P03952 20-390 limits assumed): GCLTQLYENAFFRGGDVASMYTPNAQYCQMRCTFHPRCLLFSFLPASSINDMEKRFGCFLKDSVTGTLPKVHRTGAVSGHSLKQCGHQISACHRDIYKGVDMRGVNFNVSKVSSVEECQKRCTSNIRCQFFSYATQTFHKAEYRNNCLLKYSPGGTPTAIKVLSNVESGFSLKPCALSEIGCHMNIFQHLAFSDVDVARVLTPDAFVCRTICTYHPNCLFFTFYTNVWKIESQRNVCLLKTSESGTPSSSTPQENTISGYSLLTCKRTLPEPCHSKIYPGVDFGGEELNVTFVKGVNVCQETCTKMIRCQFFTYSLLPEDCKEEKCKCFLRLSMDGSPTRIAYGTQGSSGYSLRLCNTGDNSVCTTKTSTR
T1 sequence (P03952 391-638 limits assumed): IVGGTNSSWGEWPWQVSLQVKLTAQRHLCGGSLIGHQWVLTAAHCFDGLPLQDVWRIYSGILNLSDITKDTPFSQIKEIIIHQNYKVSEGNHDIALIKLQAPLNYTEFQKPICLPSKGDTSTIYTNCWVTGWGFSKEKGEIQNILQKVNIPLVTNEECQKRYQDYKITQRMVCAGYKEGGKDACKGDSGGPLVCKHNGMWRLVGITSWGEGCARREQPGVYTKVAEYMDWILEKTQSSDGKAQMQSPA
T3 sequence (P06870 whole entry): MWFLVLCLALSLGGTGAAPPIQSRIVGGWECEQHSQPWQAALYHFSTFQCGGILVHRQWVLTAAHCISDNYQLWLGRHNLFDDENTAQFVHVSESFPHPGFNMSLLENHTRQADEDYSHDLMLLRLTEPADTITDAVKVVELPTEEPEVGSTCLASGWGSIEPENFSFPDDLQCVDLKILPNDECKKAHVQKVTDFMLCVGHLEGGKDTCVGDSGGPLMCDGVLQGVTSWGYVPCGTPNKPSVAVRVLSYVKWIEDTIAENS
Plasma kallikrein (Rattus norvegicus, UniProt P14272), sequence (P14272 20-390 limits assumed): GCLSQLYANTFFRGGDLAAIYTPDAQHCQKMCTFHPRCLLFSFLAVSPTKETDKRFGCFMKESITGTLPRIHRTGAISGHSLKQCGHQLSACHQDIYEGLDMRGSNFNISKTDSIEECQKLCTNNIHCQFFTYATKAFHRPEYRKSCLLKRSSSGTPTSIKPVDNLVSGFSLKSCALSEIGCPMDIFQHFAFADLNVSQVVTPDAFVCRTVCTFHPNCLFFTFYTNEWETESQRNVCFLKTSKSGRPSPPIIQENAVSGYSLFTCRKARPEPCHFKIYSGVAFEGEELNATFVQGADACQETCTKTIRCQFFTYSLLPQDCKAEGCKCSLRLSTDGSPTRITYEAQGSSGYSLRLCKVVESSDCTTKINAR
Plasma kallikrein (Rattus norvegicus, UniProt P14272), sequence (P14272 391-638 limits assumed): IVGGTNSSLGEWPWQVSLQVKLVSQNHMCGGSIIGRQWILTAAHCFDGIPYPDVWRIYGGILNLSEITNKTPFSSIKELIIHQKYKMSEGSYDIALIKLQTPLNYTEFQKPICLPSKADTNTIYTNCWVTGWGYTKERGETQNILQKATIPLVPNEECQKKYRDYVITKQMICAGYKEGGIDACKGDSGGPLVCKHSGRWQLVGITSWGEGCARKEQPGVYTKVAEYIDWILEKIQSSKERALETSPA
Coagulation factor XI, sequence (P03951 19-387 limits assumed): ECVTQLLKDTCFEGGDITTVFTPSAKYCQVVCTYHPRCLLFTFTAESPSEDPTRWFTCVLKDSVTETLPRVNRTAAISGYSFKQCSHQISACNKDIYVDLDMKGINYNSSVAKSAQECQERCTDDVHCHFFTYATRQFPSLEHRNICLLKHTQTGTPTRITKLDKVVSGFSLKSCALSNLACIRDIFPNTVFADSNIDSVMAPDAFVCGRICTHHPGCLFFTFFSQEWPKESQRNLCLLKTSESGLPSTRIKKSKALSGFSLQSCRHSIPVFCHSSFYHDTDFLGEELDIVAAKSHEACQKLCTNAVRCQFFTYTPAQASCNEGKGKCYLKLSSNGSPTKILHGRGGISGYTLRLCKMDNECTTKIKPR
Coagulation factor XI, sequence (P03951 388-625 limits assumed): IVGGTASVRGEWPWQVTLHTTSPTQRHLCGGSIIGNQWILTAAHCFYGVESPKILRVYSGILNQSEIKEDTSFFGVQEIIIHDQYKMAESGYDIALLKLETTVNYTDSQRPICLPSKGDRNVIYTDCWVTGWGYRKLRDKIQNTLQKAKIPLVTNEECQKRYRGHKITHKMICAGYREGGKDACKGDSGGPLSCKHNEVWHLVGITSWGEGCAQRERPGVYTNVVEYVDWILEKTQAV

- IC50 (Plasma kallikrein [1]): 100 nM
- Ki (Plasma kallikrein [1]): 0.1 nM
Compound: NCc1cccc(-n2nc(C(F)(F)F)cc2C(=O)Nc2cccc(C(OCC3CC3)c3ccccc3)c2)c1 (stereo unspecified)

- IC50 (Plasma kallikrein [1]): 100 nM
- Ki (Plasma kallikrein [1]): 0.1 nM
Compound: NCc1cccc(-n2nc(C(N)=O)cc2C(=O)Nc2cc(C(NCC3CC3)c3ccccc3)ccc2F)c1 (stereo unspecified)

- IC50 (Plasma kallikrein [2]): 2000 nM
- IC50 (Plasminogen [3]): 42000 nM
Compound: CC(=O)c1ccc(NC(=O)C(CCCNC(=N)NS(=O)(=O)c2c(C)cc(C)cc2C)NC(=O)C2CCC(CN)CC2)cc1 (stereo unspecified)

- IC50 (Plasma kallikrein [2]): 50000 nM
- IC50 (Plasminogen [3]): > 500000 nM
Compound: COC(=O)c1ccc(NC(=O)[C@H](CCCCN)NC(=O)C2CCC(CN)CC2)cc1 (stereo partly specified)

- IC50 (Plasma kallikrein [2]): 850 nM
- IC50 (Plasminogen [3]): 21000 nM
- IC50 [4]: 58000 nM
Compound: CC(=O)c1ccc(NC(=O)[C@H](Cc2ccccc2)NC(=O)C2CCC(CN)CC2)cc1 (stereo partly specified)

- IC50 (Plasma kallikrein [1]): 100 nM
Compound: Nc1nccc2ccc(-n3nc(C(F)(F)F)cc3C(=O)Nc3cc(C(NCC4CC4)c4ccccc4)ccc3F)cc12 (stereo unspecified)

- IC50 (Plasma kallikrein [1]): > 50000 nM
Compound: NCc1cccc(-n2nc(C(F)(F)F)cc2C(=O)Nc2cccc(C(O)c3ccccc3)c2)c1 (stereo unspecified)

- IC50 (Plasma kallikrein [2]): 4.8 nM
Compound: Nc1nn(Cc2ccc(Cn3ccccc3=O)cc2)cc1C(=O)N[C@H]1CCN(c2cccc(Cl)c2)C1

- IC50 (Plasma kallikrein [5]): 8.7 nM
Compound: COCc1nn(Cc2ccc(Cn3cc(C)cn3)cc2)cc1C(=O)NCc1cnc2[nH]cc(Cl)c2c1

- IC50 (Plasma kallikrein [6]): < 100 nM
Compound: Cc1nc(N)ccc1CNC(=O)c1ccnc(Cc2ccc(Cn3ccccc3=O)c(S(C)(=O)=O)c2)c1

- IC50 (Plasma kallikrein [1]): < 50 nM
Compound: CO[C@@H]1C[C@H](C(=O)Nc2cc(C(N)(CCC3CC3)c3ccccn3)ccc2F)N(C(=O)Nc2ccc(Cl)cc2)C1 (stereo partly specified)

- IC50 (Plasma kallikrein [6]): < 100 nM
Compound: Fc1c(CNc2ncnc3nc(Cc4ccc5ncc(Cl)cc5c4)[nH]c23)ccc2[nH]cc(Cl)c12

- IC50 (Plasma kallikrein [6]): < 100 nM
Compound: Fc1cc2[nH]cc(Cl)c2cc1CNc1ncnc2nc(Cc3ccc4ncc(Cl)cc4c3)[nH]c12

- IC50 (Trypsin): > 40000 nM
- IC50 (Kallikrein-1 [7]): > 40000 nM
- IC50 (Plasminogen [3]): > 40000 nM
- IC50 (Prothrombin [8]): > 40000 nM
Compound: COCc1nn(Cc2ccc(Cn3cc(F)ccc3=O)cc2)cc1C(=O)NCc1nccc(OC)c1F

- IC50 (Plasma kallikrein [2]): 14000 nM
Compound: N=C(N)NCCCC[C@H](NC(=O)C1CCC(CN)CC1)C(=O)Nc1ccc(C(=O)O)cc1 (stereo partly specified)

- IC50 (Plasma kallikrein [1]): < 50 nM
Compound: NC(CCC1CC1)(c1ccc(F)c(NC(=O)[C@H]2C[C@](O)(c3ccccc3)CN2C(=O)Nc2ccc(Cl)cc2)c1)c1ccccn1 (stereo partly specified)

- IC50 (Plasma kallikrein [5]): 20 nM
- IC50 (Kallikrein-1 [9]): 7200 nM
Compound: CCOc1ccc(C[C@@H](NC(=O)c2ccccc2)C(=O)N[C@H](C(=O)NCc2ccc(CN)cc2)[C@H](O)c2ccccc2)cc1

- IC50 (Prothrombin [10]): > 50000 nM
- Ki (Plasminogen [11]): 5.2 nM
- Ki (Plasma kallikrein [12]): 27.2 nM
- Ki (Coagulation factor XI): > 50000 nM
- Ki (Coagulation factor XII): > 50000 nM
Compound: CC(N)C(=O)NC1CSCc2cc3cc(c2)CSCC(C(=O)NC(C)C(N)=O)NC(=O)C(CCCNC(=N)N)NC(=O)C(C(C)C)NC(=O)C(CC(N)=O)NC(=O)C(CSC3)NC(=O)C(C)NC(=O)C(CCCCN)NC(=O)C(Cc2ccccc2)NC1=O (stereo unspecified) (H-ACFKACNVRCA-NH2; linker 2-6-10 via TBMB; configuration not given here)

- IC50 (Plasma kallikrein [13]): 1 nM
Compound: Cc1cnn(Cc2ccc(Cn3cc(C(=O)NCc4cnc5[nH]cc(Cl)c5c4)c(C#N)n3)cc2)c1

- IC50 (Plasma kallikrein [2]): 18000 nM
Compound: COC(=O)c1ccc(NC(=O)[C@H](CCCCNC(=N)N)NC(=O)C2CCC(CN)CC2)cc1 (stereo partly specified)

- IC50 (Plasma kallikrein [6]): < 100 nM
Compound: CS(=O)(=O)c1cc(Cc2cc(C(=O)NCc3cnc4[nH]cc(Cl)c4c3)ccn2)ccc1Cn1ccccc1=O

- IC50 (Plasma kallikrein [1]): < 50 nM
Compound: CCO[C@@H]1C[C@H](C(=O)Nc2cc(C(N)(CCC3CC3)c3ccccn3)ccc2F)N(C(=O)Nc2ccc(Cl)cc2)C1 (stereo partly specified)

From ChEMBL document CHEMBL5233226 (Eur J Med Chem, 2020)
